Experimental data as given in the NIST ThermoML archive (doi:10.1016/j.jct.2018.12.014).
± gives the expanded uncertainty stated by the source.

What was measured:
[1] = wn = mass fraction of the nth substance listed; details: 101 kPa, Liquid, Vibrating tube method
[2] = refractive index (Na D-line) (dimensionless); wn = mass fraction of the nth substance listed; details: 101 kPa, Liquid, Standard Abbe refractometry

C[P+](c1ccccc1)(c1ccccc1)c1ccccc1.[Br-] [methyltriphenylphosphonium bromide] + CN(CCO)CCO
mass density ([1]; 293.15 K, w1 = 0.1578): 1086.84 ± 8.5 kg/m3
mass density ([1]; 293.15 K, w1 = 0.2306): 1106.7 ± 8.4 kg/m3
mass density ([1]; 293.15 K, w1 = 0.2998): 1124.09 ± 8.3 kg/m3
mass density ([1]; 298.15 K, w1 = 0.1578): 1083.1 ± 8.5 kg/m3
mass density ([1]; 298.15 K, w1 = 0.2306): 1102.99 ± 8.4 kg/m3
mass density ([1]; 298.15 K, w1 = 0.2998): 1120.4 ± 8.2 kg/m3
mass density ([1]; 303.15 K, w1 = 0.1578): 1079.34 ± 8.5 kg/m3
mass density ([1]; 303.15 K, w1 = 0.2306): 1099.26 ± 8.3 kg/m3
mass density ([1]; 303.15 K, w1 = 0.2998): 1116.71 ± 8.2 kg/m3
mass density ([1]; 308.15 K, w1 = 0.1578): 1075.59 ± 8.4 kg/m3
mass density ([1]; 308.15 K, w1 = 0.2306): 1095.54 ± 8.3 kg/m3
mass density ([1]; 308.15 K, w1 = 0.2998): 1113.03 ± 8.2 kg/m3
mass density ([1]; 313.15 K, w1 = 0.1578): 1071.84 ± 8.4 kg/m3
mass density ([1]; 313.15 K, w1 = 0.2306): 1091.82 ± 8.3 kg/m3
mass density ([1]; 313.15 K, w1 = 0.2998): 1109.36 ± 8.2 kg/m3
mass density ([1]; 318.15 K, w1 = 0.1578): 1068.08 ± 8.4 kg/m3
mass density ([1]; 318.15 K, w1 = 0.2306): 1088.09 ± 8.3 kg/m3
mass density ([1]; 318.15 K, w1 = 0.2998): 1105.69 ± 8.1 kg/m3
mass density ([1]; 323.15 K, w1 = 0.1578): 1064.32 ± 8.3 kg/m3
mass density ([1]; 323.15 K, w1 = 0.2306): 1084.36 ± 8.2 kg/m3
mass density ([1]; 323.15 K, w1 = 0.2998): 1102.01 ± 8.1 kg/m3
mass density ([1]; 328.15 K, w1 = 0.1578): 1060.54 ± 8.3 kg/m3
mass density ([1]; 328.15 K, w1 = 0.2306): 1080.63 ± 8.2 kg/m3
mass density ([1]; 328.15 K, w1 = 0.2998): 1098.34 ± 8.1 kg/m3
mass density ([1]; 333.15 K, w1 = 0.1578): 1056.77 ± 8.3 kg/m3
mass density ([1]; 333.15 K, w1 = 0.2306): 1076.9 ± 8.2 kg/m3
mass density ([1]; 333.15 K, w1 = 0.2998): 1094.66 ± 8.1 kg/m3
mass density ([1]; 338.15 K, w1 = 0.1578): 1052.98 ± 8.3 kg/m3
mass density ([1]; 338.15 K, w1 = 0.2306): 1073.17 ± 8.2 kg/m3
mass density ([1]; 338.15 K, w1 = 0.2998): 1090.99 ± 8 kg/m3
mass density ([1]; 343.15 K, w1 = 0.1578): 1049.19 ± 8.2 kg/m3
mass density ([1]; 343.15 K, w1 = 0.2306): 1069.43 ± 8.1 kg/m3
mass density ([1]; 343.15 K, w1 = 0.2998): 1087.31 ± 8 kg/m3
mass density ([1]; 348.15 K, w1 = 0.1578): 1045.47 ± 8.2 kg/m3
mass density ([1]; 348.15 K, w1 = 0.2306): 1065.72 ± 8.1 kg/m3
mass density ([1]; 348.15 K, w1 = 0.2998): 1083.63 ± 8 kg/m3
mass density ([1]; 353.15 K, w1 = 0.1578): 1041.65 ± 8.2 kg/m3
mass density ([1]; 353.15 K, w1 = 0.2306): 1062.05 ± 8.1 kg/m3
mass density ([1]; 353.15 K, w1 = 0.2998): 1080.06 ± 8 kg/m3
refractive index ([2]; 293.15 K, w1 = 0.1578): 1.49579 ± 0.0039
refractive index ([2]; 293.15 K, w1 = 0.2306): 1.50867 ± 0.0038
refractive index ([2]; 293.15 K, w1 = 0.2998): 1.52077 ± 0.0038
refractive index ([2]; 298.15 K, w1 = 0.1578): 1.49402 ± 0.0038
refractive index ([2]; 298.15 K, w1 = 0.2306): 1.50694 ± 0.0038
refractive index ([2]; 298.15 K, w1 = 0.2998): 1.51904 ± 0.0038
refractive index ([2]; 303.15 K, w1 = 0.1578): 1.49224 ± 0.0038
refractive index ([2]; 303.15 K, w1 = 0.2306): 1.50517 ± 0.0038
refractive index ([2]; 303.15 K, w1 = 0.2998): 1.51732 ± 0.0038
refractive index ([2]; 308.15 K, w1 = 0.1578): 1.49037 ± 0.0038
refractive index ([2]; 308.15 K, w1 = 0.2306): 1.5034 ± 0.0038
refractive index ([2]; 308.15 K, w1 = 0.2998): 1.51557 ± 0.0038
refractive index ([2]; 313.15 K, w1 = 0.1578): 1.48865 ± 0.0038
refractive index ([2]; 313.15 K, w1 = 0.2306): 1.50162 ± 0.0038
refractive index ([2]; 313.15 K, w1 = 0.2998): 1.51383 ± 0.0038
refractive index ([2]; 318.15 K, w1 = 0.1578): 1.4869 ± 0.0038
refractive index ([2]; 318.15 K, w1 = 0.2306): 1.49961 ± 0.0038
refractive index ([2]; 318.15 K, w1 = 0.2998): 1.51212 ± 0.0038
refractive index ([2]; 323.15 K, w1 = 0.1578): 1.48502 ± 0.0038
refractive index ([2]; 323.15 K, w1 = 0.2306): 1.49793 ± 0.0038
refractive index ([2]; 323.15 K, w1 = 0.2998): 1.5103 ± 0.0038
refractive index ([2]; 328.15 K, w1 = 0.1578): 1.48313 ± 0.0038
refractive index ([2]; 328.15 K, w1 = 0.2306): 1.49584 ± 0.0038
refractive index ([2]; 328.15 K, w1 = 0.2998): 1.5083 ± 0.0038
refractive index ([2]; 333.15 K, w1 = 0.1578): 1.48114 ± 0.0038
refractive index ([2]; 333.15 K, w1 = 0.2306): 1.4942 ± 0.0038
refractive index ([2]; 333.15 K, w1 = 0.2998): 1.50644 ± 0.0038
refractive index ([2]; 338.15 K, w1 = 0.1578): 1.47935 ± 0.0038
refractive index ([2]; 338.15 K, w1 = 0.2306): 1.49244 ± 0.0038
refractive index ([2]; 338.15 K, w1 = 0.2998): 1.50466 ± 0.0038
refractive index ([2]; 343.15 K, w1 = 0.1578): 1.47746 ± 0.0038
refractive index ([2]; 343.15 K, w1 = 0.2306): 1.49064 ± 0.0038
refractive index ([2]; 343.15 K, w1 = 0.2998): 1.50288 ± 0.0038
